Data reported in patent publication US20100273816A1, “Quinazoline Compounds” (priority 2007, published 2010).

Columns and labels:
human LXRβ = target: T1, human LXRβ (Homo sapiens, UniProt P55055); test: Ligand-binding test procedure for human LXRβ (3H T0901317 tracer, flash plates); conditions: biotinylated hLXRβ from E. coli extract, +4° C. over night, read-out: hLXRB binding assay Mean IC50
T1 construct: biotin (biotinylated); made in house; host or cells: E. coli (crude extract)
T1 sequence (P55055 1-460): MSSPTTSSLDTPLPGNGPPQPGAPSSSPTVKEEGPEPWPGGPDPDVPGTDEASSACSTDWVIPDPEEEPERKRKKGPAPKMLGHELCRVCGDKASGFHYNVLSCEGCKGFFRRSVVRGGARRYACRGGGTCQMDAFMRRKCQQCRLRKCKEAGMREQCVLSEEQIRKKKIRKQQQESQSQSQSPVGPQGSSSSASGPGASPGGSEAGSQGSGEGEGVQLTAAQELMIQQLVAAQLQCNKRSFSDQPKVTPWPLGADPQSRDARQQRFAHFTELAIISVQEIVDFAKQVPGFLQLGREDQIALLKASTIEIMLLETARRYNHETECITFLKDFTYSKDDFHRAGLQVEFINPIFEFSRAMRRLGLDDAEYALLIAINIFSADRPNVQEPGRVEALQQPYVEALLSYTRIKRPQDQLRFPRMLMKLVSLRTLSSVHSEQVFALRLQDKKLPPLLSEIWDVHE
Description: I. Ligand-Binding Test Procedure for Human LXRβ.
(§1) Buffer: 100 mM KCl, 100 mM TRIS (pH 7.4 at +4° C.), 8.6% glycerol, 0.1 mM PMSF*, 2 mM MTG*, 0.2% CHAPS (* not used in wash buffer)
Receptor source: E. coli extract from cells expressing biotinylated hLXRβ. Extract was made in a similar buffer as above, but with 50 mM TRIS.
(§2) Washed streptavidin and coated flash plates with wash buffer.
(§3) Diluted receptor extract to give Bmax ˜4000 cpm and add to the wells.
(§4) Wrapped the plates in aluminum foil and stored them at +4° C. over night.
(§5) Made a dilution series in DMSO of the test ligands.
(§6) Made a 5 nM solution of the radioactive tracer in buffer.
Mixed 250 μl diluted tracer with 50 of the test ligand from each concentration of the dilution series.
(§7) Washed the receptor-coated flash plates.
(§8) Added 200 μl per well of the ligand/radiolabel mixture to the receptor-coated flash plates.
(§9) Wrapped the plates in aluminum foil and incubate at +4° C. over night.
(§10) Aspirated wells, and wash the flashed plates. Sealed the plate.
(§11) Measured the remaining radioactivity in the plate.

human LXRα = target: T2, human LXRα (Homo sapiens, UniProt Q13133); test: Ligand-binding test procedure for human LXRα (3H T0901317 tracer, flash plates); conditions: biotinylated hLXRα from E. coli extract, +4° C. over night, read-out: hLXRa binding assay Mean IC50
T2 construct: biotin (biotinylated); made in house; host or cells: E. coli (crude extract)
T2 sequence (Q13133 1-447): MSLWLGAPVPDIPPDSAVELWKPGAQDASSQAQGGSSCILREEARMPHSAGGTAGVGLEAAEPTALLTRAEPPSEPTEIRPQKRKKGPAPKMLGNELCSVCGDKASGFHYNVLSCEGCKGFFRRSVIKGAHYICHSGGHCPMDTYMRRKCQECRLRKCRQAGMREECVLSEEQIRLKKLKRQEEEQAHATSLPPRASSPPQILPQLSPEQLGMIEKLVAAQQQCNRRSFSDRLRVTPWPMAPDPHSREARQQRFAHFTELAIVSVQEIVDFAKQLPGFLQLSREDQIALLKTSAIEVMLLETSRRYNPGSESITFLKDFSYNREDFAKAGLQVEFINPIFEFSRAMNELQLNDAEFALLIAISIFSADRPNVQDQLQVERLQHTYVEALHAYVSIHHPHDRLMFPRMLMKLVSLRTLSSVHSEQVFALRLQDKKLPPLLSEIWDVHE
Description: II. Ligand-Binding Test Procedure for Human LXRα.
as §1
Receptor source: E. coli extract from cells expressing biotinylated hLXRα. Extract was made in a similar buffer as above, but with 50 mM TRIS.
as §2, §3, §4, §5, §6
Mixed 250 μl diluted tracer with 5 μl of the test ligand from each concentration of the dilution series.
as §7, §8, §9, §10, §11

Structure (SMILES)	IC50 (human LXRβ) [nM]	IC50 (human LXRα) [nM]
O=S(=O)(CCCO)c1ccc(Oc2cccc(-c3ncnc4c(C(F)(F)F)cccc34)c2)cc1 [Example 19, 3-[(4-{3-[8-(trifluoromethyl)quinazolin-4-yl]phenoxy}phenyl)sulfonyl]propan-1-ol]	19100	64800
CS(=O)(=O)c1cc(F)cc(Oc2cccc(-c3ncnc4c(C(F)(F)F)cccc34)c2)c1 [Example 20, 4-{3-[3-fluoro-5-(methylsulfonyl)phenoxy]phenyl}-8-(trifluoromethyl)quinazoline]	398	6330
Cc1nc(-c2cccc(Oc3cccc(S(C)(=O)=O)c3)c2)c2cccc(C(F)(F)F)c2n1 [Example 21, 2-methyl-4-{3-[3-(methylsulfonyl)phenoxy]phenyl}-8-(trifluoromethyl)quinazoline]	433	13800
CS(=O)(=O)c1cccc(Oc2cccc(-c3ncnc4c(Cl)cccc34)c2)c1 [Example 24, 8-chloro-4-{3-[3-(methylsulfonyl)phenoxy]phenyl}quinazoline]	295	5320
CS(=O)(=O)c1cccc(COc2cccc(-c3ncnc4c(C(F)(F)F)cccc34)c2)c1 [Example 25, 4-(3-{[3-(methylsulfonyl)benzyl]oxy}phenyl)-8-(trifluoromethyl)quinazoline]	285	2830
CS(=O)(=O)c1cccc(-c2cccc(-c3ncnc4c(C(F)(F)F)cccc34)c2)c1 [Example 27, 4-(3′-Methanesulfonyl-biphenyl-3-yl)-8-trifluoromethyl-quinazoline]	194	1670
Cc1nc(-c2cccc(-c3cccc(S(C)(=O)=O)c3)c2)c2cccc(C(F)(F)F)c2n1 [Example 37, 4-(3′-Methanesulfonyl-biphenyl-3-yl)-2-methyl-8-trifluoromethyl-quinazoline]	69	706
CCc1nc(-c2cccc(-c3cccc(S(C)(=O)=O)c3)c2)c2cccc(C(F)(F)F)c2n1 [Example 40, 2-ethyl-4-[3′-(methylsulfonyl)biphenyl-3-yl]-8-(trifluoromethyl)quinazoline]	97	1140
CCCc1nc(-c2cccc(-c3cccc(S(C)(=O)=O)c3)c2)c2cccc(C(F)(F)F)c2n1 [Example 41, 4-[3′-(methylsulfonyl)biphenyl-3-yl]-2-propyl-8-(trifluoromethyl)quinazoline]	175	> 1000
CC(C)c1nc(-c2cccc(-c3cccc(S(C)(=O)=O)c3)c2)c2cccc(C(F)(F)F)c2n1 [Example 42, 2-isopropyl-4-[3′-(methylsulfonyl)biphenyl-3-yl]-8-(trifluoromethyl)quinazoline]	452	3250
CS(=O)(=O)c1cccc(-c2cccc(-c3nc(-c4ccccc4)nc4c(C(F)(F)F)cccc34)c2)c1 [Example 43, 4-[3′-(methylsulfonyl)biphenyl-3-yl]-2-phenyl-8-(trifluoromethyl)quinazoline]	309	20300
CC(C)(C(=O)O)c1ccc(COc2cccc(-c3ncnc4c(C(F)(F)F)cccc34)c2)cc1 [Example 44, 2-methyl-2-[4-({3-[8-(trifluoromethyl)quinazolin-4-yl]phenoxy}methyl)phenyl]propanoic acid]	> 1000	> 1000
O=C(O)Cc1ccc(COc2cccc(-c3ncnc4c(C(F)(F)F)cccc34)c2)cc1 [Example 45, [4-({3-[8-(trifluoromethyl)quinazolin-4-yl]phenoxy}methyl)phenyl]acetic acid]	5290	> 1000
CS(=O)(=O)c1cccc(Oc2ccc(Cl)c(-c3ncnc4c(C(F)(F)F)cccc34)c2)c1 [Example 49, 4-{2-chloro-5-[3-(methylsulfonyl)phenoxy]phenyl}-8-(trifluoromethyl)quinazoline]	5	177
CCS(=O)(=O)c1cccc(Oc2ccc(Cl)c(-c3ncnc4c(C(F)(F)F)cccc34)c2)c1 [Example 50, 4-{2-chloro-5-[3-(ethylsulfonyl)phenoxy]phenyl}-8-(trifluoromethyl)quinazoline]	5	236
CC(C)S(=O)(=O)c1cccc(Oc2ccc(Cl)c(-c3ncnc4c(C(F)(F)F)cccc34)c2)c1 [Example 51, 4-{2-chloro-5-[3-(isopropylsulfonyl)phenoxy]phenyl}-8-(trifluoromethyl)quinazoline]	2	119
CS(=O)(=O)c1cccc(Oc2ccc(F)c(-c3ncnc4c(C(F)(F)F)cccc34)c2)c1 [Example 52, 4-{2-fluoro-5-[3-(methylsulfonyl)phenoxy]phenyl}-8-(trifluoromethyl)quinazoline]	14	284
CCS(=O)(=O)c1cccc(Oc2ccc(F)c(-c3ncnc4c(C(F)(F)F)cccc34)c2)c1 [Example 53, 4-{5-[3-(ethylsulfonyl)phenoxy]-2-fluorophenyl}-8-(trifluoromethyl)quinazoline]	8	233
CC(C)S(=O)(=O)c1cccc(Oc2ccc(F)c(-c3ncnc4c(C(F)(F)F)cccc34)c2)c1 [Example 54, 4-{2-fluoro-5-[3-(isopropylsulfonyl)phenoxy]phenyl}-8-(trifluoromethyl)quinazoline]	5	176
CS(=O)(=O)c1cc(F)cc(Oc2ccc(F)c(-c3ncnc4c(C(F)(F)F)cccc34)c2)c1 [Example 55, 4-{2-fluoro-5-[3-fluoro-5-(methylsulfonyl)phenoxy]phenyl}-8-(trifluoromethyl)quinazoline]	35	782
CS(=O)(=O)c1cccc(COc2ccc(F)c(-c3ncnc4c(C(F)(F)F)cccc34)c2)c1 [Example 56, 4-(2-fluoro-5-{[3-(methylsulfonyl)benzyl]oxy}phenyl)-8-(trifluoromethyl)quinazoline]	44	787
CS(=O)(=O)c1cc(Cl)cc(Oc2ccc(F)c(-c3ncnc4c(C(F)(F)F)cccc34)c2)c1 [Example 57, 4-{5-[3-chloro-5-(methylsulfonyl)phenoxy]-2-fluorophenyl}-8-(trifluoromethyl)quinazoline]	214	2340
Cc1nc(-c2cc(Oc3cccc(S(C)(=O)=O)c3)ccc2Cl)c2cccc(C(F)(F)F)c2n1 [Example 58, 4-{2-chloro-5-[3-(methylsulfonyl)phenoxy]phenyl}-2-methyl-8-(trifluoromethyl)quinazoline]	20	1360
CCS(=O)(=O)c1cccc(Oc2ccc(Cl)c(-c3nc(C)nc4c(C(F)(F)F)cccc34)c2)c1 [Example 59, 4-{2-chloro-5-[3-(ethylsulfonyl)phenoxy]phenyl}-2-methyl-8-(trifluoromethyl)quinazoline]	19	2370
Cc1nc(-c2cc(Oc3cccc(S(=O)(=O)C(C)C)c3)ccc2Cl)c2cccc(C(F)(F)F)c2n1 [Example 60, 4-{2-chloro-5-[3-(isopropylsulfonyl)phenoxy]phenyl}-2-methyl-8-(trifluoromethyl)quinazoline]	16	524
Cc1nc(-c2cc(Oc3cc(F)cc(S(C)(=O)=O)c3)ccc2Cl)c2cccc(C(F)(F)F)c2n1 [Example 61, 4-{2-chloro-5-[3-fluoro-5-(methylsulfonyl)phenoxy]phenyl}-2-methyl-8-(trifluoromethyl)quinazoline]	49	1790
